{
  "source": "ChEMBL document CHEMBL1201862",
  "about": "“PubChem BioAssay data set” (2004)",
  "assay_in_all_cases": "NCI tumour cell line growth inhibition, 48 h",
  "key": {"786-0": {"test_system": "786-0"}, "A498": {"test_system": "A498"}, "A549": {"test_system": "A549"}, "ACHN": {"test_system": "ACHN"}, "BT-549": {"test_system": "BT-549"}, "CAKI-1": {"test_system": "CAKI-1"}, "CCRF-CEM": {"test_system": "CCRF-CEM"}, "COLO 205": {"test_system": "COLO 205"}, "EKVX": {"test_system": "EKVX"}, "HCT-116": {"test_system": "HCT-116"}, "HCT-15": {"test_system": "HCT-15"}, "HL-60": {"test_system": "HL-60"}, "HOP-62": {"test_system": "HOP-62"}, "HOP-92": {"test_system": "HOP-92"}, "HT-29": {"test_system": "HT-29"}, "Hs-578T": {"test_system": "Hs-578T"}, "IGROV-1": {"test_system": "IGROV-1"}, "K562": {"test_system": "K562"}, "KM12": {"test_system": "KM12"}, "LOX IMVI": {"test_system": "LOX IMVI"}, "M14": {"test_system": "M14"}, "MCF7": {"test_system": "MCF7"}, "MDA-MB-231": {"test_system": "MDA-MB-231"}, "MDA-MB-435": {"test_system": "MDA-MB-435"}, "MDA-N": {"test_system": "MDA-N"}, "MOLT-4": {"test_system": "MOLT-4"}, "Malme-3M": {"test_system": "Malme-3M"}, "NCI-H226": {"test_system": "NCI-H226"}, "NCI-H23": {"test_system": "NCI-H23"}, "NCI-H460": {"test_system": "NCI-H460"}, "NCI/ADR-RES": {"test_system": "NCI/ADR-RES"}, "OVCAR-3": {"test_system": "OVCAR-3"}, "OVCAR-4": {"test_system": "OVCAR-4"}, "OVCAR-5": {"test_system": "OVCAR-5"}, "OVCAR-8": {"test_system": "OVCAR-8"}, "PC-3": {"test_system": "PC-3"}, "RXF 393": {"test_system": "RXF 393"}, "SF-295": {"test_system": "SF-295"}, "SF-539": {"test_system": "SF-539"}, "SK-MEL-28": {"test_system": "SK-MEL-28"}, "SK-MEL-2": {"test_system": "SK-MEL-2"}, "SK-MEL-5": {"test_system": "SK-MEL-5"}, "SK-OV-3": {"test_system": "SK-OV-3"}, "SN12C": {"test_system": "SN12C"}, "SNB-19": {"test_system": "SNB-19"}, "SNB-75": {"test_system": "SNB-75"}, "SR": {"test_system": "SR"}, "SW-620": {"test_system": "SW-620"}, "TK-10": {"test_system": "TK-10"}, "U-251": {"test_system": "U-251"}, "UACC-257": {"test_system": "UACC-257"}, "UACC-62": {"test_system": "UACC-62"}, "UO-31": {"test_system": "UO-31"}},
  "note": "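Interpolation was linear, between the two tested concentrations surrounding the appropriate level; five concentrations were tested over 48 hours in 96-well plates. The concentration for 50% growth inhibition is given as GI50.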 Activity calls are given as the source filed them. Cut-off read from the data, not from the text of the source: active = GI50 up to about 1.1 µM and inactive = higher.",
  "data": [
    {"compound": "C=C1CC[C@@H](C)[C@](C)(CCc2ccoc2)C/C=C\\C=C/1C(=O)O", "values": [
      {"measurement": "GI50", "setting": "786-0", "value": "46.6 µM (inactive)"},
      {"measurement": "GI50", "setting": "A498", "value": "58.6 µM (inactive)"},
      {"measurement": "GI50", "setting": "A549", "value": "36.2 µM (inactive)"},
      {"measurement": "GI50", "setting": "ACHN", "value": "53.2 µM (inactive)"},
      {"measurement": "GI50", "setting": "BT-549", "value": "19.5 µM (inactive)"},
      {"measurement": "GI50", "setting": "CAKI-1", "value": "31.6 µM (inactive)"},
      {"measurement": "GI50", "setting": "CCRF-CEM", "value": "28.4 µM (inactive)"},
      {"measurement": "GI50", "setting": "COLO 205", "value": "21 µM (inactive)"},
      {"measurement": "GI50", "setting": "EKVX", "value": "64.6 µM (inactive)"},
      {"measurement": "GI50", "setting": "HCT-116", "value": "21.8 µM (inactive)"},
      {"measurement": "GI50", "setting": "HCT-15", "value": 35.2, "unit": "µM"},
      {"measurement": "GI50", "setting": "HL-60", "value": "16.5 µM (inactive)"},
      {"measurement": "GI50", "setting": "HOP-62", "value": "44.8 µM (inactive)"},
      {"measurement": "GI50", "setting": "HOP-92", "value": "62.2 µM (inactive)"},
      {"measurement": "GI50", "setting": "HT-29", "value": "36.7 µM (inactive)"},
      {"measurement": "GI50", "setting": "Hs-578T", "value": "71 µM (inactive)"},
      {"measurement": "GI50", "setting": "IGROV-1", "value": "51.4 µM (inactive)"},
      {"measurement": "GI50", "setting": "K562", "value": "32.3 µM (inactive)"},
      {"measurement": "GI50", "setting": "KM12", "value": "33.1 µM (inactive)"},
      {"measurement": "GI50", "setting": "LOX IMVI", "value": "21.1 µM (inactive)"},
      {"measurement": "GI50", "setting": "M14", "value": "32.4 µM (inactive)"},
      {"measurement": "GI50", "setting": "MCF7", "value": "33.3 µM (inactive)"},
      {"measurement": "GI50", "setting": "MDA-MB-231", "value": "59.2 µM (inactive)"},
      {"measurement": "GI50", "setting": "MDA-MB-435", "value": "37.6 µM (inactive)"},
      {"measurement": "GI50", "setting": "MDA-N", "value": "22 µM (inactive)"},
      {"measurement": "GI50", "setting": "MOLT-4", "value": "27 µM (inactive)"},
      {"measurement": "GI50", "setting": "Malme-3M", "value": "33.4 µM (inactive)"},
      {"measurement": "GI50", "setting": "NCI-H226", "value": "35.6 µM (inactive)"},
      {"measurement": "GI50", "setting": "NCI-H23", "value": "50.4 µM (inactive)"},
      {"measurement": "GI50", "setting": "NCI-H460", "value": "30.2 µM (inactive)"},
      {"measurement": "GI50", "setting": "NCI/ADR-RES", "value": "25.7 µM (inactive)"},
      {"measurement": "GI50", "setting": "OVCAR-3", "value": "19.3 µM (inactive)"},
      {"measurement": "GI50", "setting": "OVCAR-4", "value": "39.5 µM (inactive)"},
      {"measurement": "GI50", "setting": "OVCAR-5", "value": "> 100 µM (inactive)"},
      {"measurement": "GI50", "setting": "OVCAR-8", "value": "21 µM (inactive)"},
      {"measurement": "GI50", "setting": "PC-3", "value": "28.9 µM (inactive)"},
      {"measurement": "GI50", "setting": "RXF 393", "value": "29.9 µM (inactive)"},
      {"measurement": "GI50", "setting": "SF-295", "value": "38.8 µM (inactive)"},
      {"measurement": "GI50", "setting": "SF-539", "value": "19.6 µM (inactive)"},
      {"measurement": "GI50", "setting": "SK-MEL-28", "value": "21.9 µM (inactive)"},
      {"measurement": "GI50", "setting": "SK-MEL-2", "value": "19.1 µM (inactive)"},
      {"measurement": "GI50", "setting": "SK-MEL-5", "value": "39.6 µM (inactive)"},
      {"measurement": "GI50", "setting": "SK-OV-3", "value": "69.2 µM (inactive)"},
      {"measurement": "GI50", "setting": "SN12C", "value": "50.5 µM (inactive)"},
      {"measurement": "GI50", "setting": "SNB-19", "value": "> 100 µM (inactive)"},
      {"measurement": "GI50", "setting": "SNB-75", "value": "80 µM (inactive)"},
      {"measurement": "GI50", "setting": "SR", "value": "23 µM (inactive)"},
      {"measurement": "GI50", "setting": "SW-620", "value": "32.8 µM (inactive)"},
      {"measurement": "GI50", "setting": "TK-10", "value": "> 100 µM (inactive)"},
      {"measurement": "GI50", "setting": "U-251", "value": "34.3 µM (inactive)"},
      {"measurement": "GI50", "setting": "UACC-257", "value": "53 µM (inactive)"},
      {"measurement": "GI50", "setting": "UACC-62", "value": "31.2 µM (inactive)"},
      {"measurement": "GI50", "setting": "UO-31", "value": "34.1 µM (inactive)"}
    ]}
  ]
}
